Experimental data reported in US20260102387A1, “IMMUNOSUPPRESSIVE COMPOUNDS” (UNIVERSITÄT BASEL, priority 2022, published 2026).
“Also recorded” adds a separate entry of the source.

Legend:
Format in all cases: cell-based
coronin 1 promoter [1] = assay: Fluorescence-based screening assay: coronin 1 promoter driven GFP in RBL cells (microplate reader / microscopy); settings: 48 h
Method: The murine coronin 1 promoter sequences of SEQ ID NO: 1-6 were each cloned into a plasmid lacking a promoter (promoterless) but containing a destabilized Green Fluorescence Protein (GFP) cassette. Rat Basophil Leukemia (RBL) cells were transfected with the plasmids, stable GFP expressing cells were enriched, incubated with various compounds and assessed for coronin 1 promoter inhibition by assessing green fluorescence values (FIG. 2).
The plasmids were independently transfected into immune cells (Rat basophil Leukemia, RBL cells) to generate green and red fluorescent RBL cells that were subsequently enriched by means of flow cytometry. These cells were then mixed in equal ratio (1:1) and incubated in a 96 well plate at 100,000 cells/well in a volume of 200 μl of phenol red free RPMI supplemented with 8% fetal calf serum, L-glutamate and antibiotics (penicillin, […]) from available chemical libraries. At defined time points (8 h, 24 h and 48 h), the GFP and RFP fluorescence was measured using a 96 well microplate reader (Synergy, BioTek Instruments). […] Selected compounds show different levels of modulation of coronin 1 promoter driven GFP and CMV promoter driven RFP fluorescence. GFP and RFP fluorescence were analyzed with a microplate reader upon incubation with the top coronin 1 promoter inhibiting compounds. Shown are percentage of GFP reduction (left column) and percentage of RFP reduction (right column) for the compounds at 5 μg/ml concentration at 48 h. Cycloheximide (CHX) serves as positive control whereas media and DMSO serve as negative controls. […] Cells were imaged using a fluorescence microscope to validate fluorescence inhibition (FIG. 3A) and as well assess morphology and viability (in addition to GFP down regulation confirmation). In addition, quantitative Polymerase Chain Reaction (qPCR) for coronin 1 mRNA transcripts reveal reduction with compound 11 (FIG. 3B). The primers used for the qPCR on RBL cells are listed below as follows;

[2] = test system: early cytomegalovirus promoter; assay: Screening assay control: CMV promoter driven RFP in RBL cells (microplate reader); settings: 5 μg/ml, 48 h, microplate reader, DMSO = 100, read-out: RFP values (%)
Method: As an unrelated promoter, the early cytomegaloviral promoter element was cloned into a promoterless Red Fluorescence Protein (RFP) expression plasmid. Rat Basophil Leukemia (RBL) cells were transfected with the plasmid, stable RFP expressing cells enriched, incubated with various compounds and were assessed for red fluorescence values. Analyzing the inhibition of an unrelated promoter (in this case, early cytomegalovirus promoter) that drove Red Fluorescence Protein (RFP) expression assessed non-specificity of the compound under analysis.
The plasmids were independently transfected into immune cells (Rat basophil Leukemia, RBL cells) to generate green and red fluorescent RBL cells that were subsequently enriched by means of flow cytometry. These cells were then mixed in equal ratio (1:1) and incubated in a 96 well plate at 100,000 cells/well in a volume of 200 μl of phenol red free RPMI supplemented with 8% fetal calf serum, L-glutamate and antibiotics (penicillin, streptomycin) and various compounds (3 and 5 μg/ml concentrations) from available chemical libraries. At defined time points (8 h, 24 h and 48 h), the GFP and RFP fluorescence was measured using a 96 well microplate reader (Synergy, BioTek Instruments). […] Selected compounds show different levels of modulation of coronin 1 promoter driven GFP and CMV promoter driven RFP fluorescence. GFP and RFP fluorescence were analyzed with a microplate reader upon incubation with the top coronin 1 promoter inhibiting compounds. Shown are percentage of GFP reduction (left column) and percentage of RFP reduction (right column) for the compounds at 5 μg/ml concentration at 48 h. Cycloheximide (CHX) serves as positive control whereas media and DMSO serve as negative controls. […] Cells were imaged using a fluorescence microscope to validate fluorescence inhibition (FIG. 3A) and as well assess morphology and viability (in addition to GFP down regulation confirmation). In addition, quantitative Polymerase Chain Reaction (qPCR) for coronin 1 mRNA transcripts reveal reduction with compound 11 (FIG. 3B). The primers used for the qPCR on RBL cells are listed below as follows;

coronin 1 promoter [3] = assay: EC50 analysis for coronin 1 promoter driven GFP inhibition by flow cytometry in RBL cells; settings: RBL, RBL cells, 48-65 h, flow cytometry
Procedure, shortened: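 RBL cells carrying coronin 1 promoter–GFP, mixed with CMV promoter–RFP cells, exposed to compounds 48–65 h and analyzed by flow cytometry with live/dead staining. EC50 derived from GFP inhibition, with RFP and viability as nonspecific and toxicity counter-reads; cycloheximide and DMSO as controls, relative potency normalized to a reference compound.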

coronin 1 = assay: Coronin 1 Western blotting in human PBMCs; settings: 10 μg/ml, 5 days
Method: buffer with 0.2% SDS containing protease and phosphatase inhibitors (Roche) at 4° C., followed by protein determination (BCA, Pierce) and SDS-PAGE, transferred onto nitrocellulose and probed using antibodies against the indicated proteins (actin and coronin 1) followed by HRP-labeled secondary antibodies and developed using an enhanced chemi-luminescence imager (Fuji) (FIG. 8A).
Heparinized or EDTA treated blood or buffy coat from healthy volunteers were enriched for monocytes using the standard Histopaque 1.077 gradient centrifugation methodology. Post enrichment, the monocyte fraction was washed extensively with plain RPMI and subsequently counted and seeded in 96 well plate at a density of 0.2 million cells/well in a volume of 200 μl RPMI-1640 (Sigma) containing 1× penicillin and streptomycin (Gibco), 2 mM L-glutamine (Gibco), 10% heat inactivated FCS (PAA) and heparin 50 units/ml along with the vehicle (DMSO) or coronin 1 inhibitor at indicated concentrations. Cells were incubated in a 37° C. humidified incubator with a 5% CO2 for five days with the expression inhibitor and vehicle replenished in between at 48 hours post seeding by replacing 50% of the media. […]

`COC(=O)C1=C(C)NC2=C(C(=O)CC(c3ccccc3OC)C2)C1c1cccc(O)c1` (centres unmarked) [Comp. 11, methyl-4-(3-hydroxyphenyl)-7-(2-methoxyphenyl)-2-methyl-5-oxo-1,4,5,6,7,8-hexahydro-3-quinolinecarboxylate] was tested, and the “coronin 1 promoter driven GFP, imaged by microscope” value (coronin 1 promoter [1]; 10 μg/ml, confocal microscope) was “selectively reduce GFP values; also recorded: selective reduction”, the activity at 5 µg/mL (coronin 1 promoter [1]; RBL, 5 μg/ml, microplate reader, DMSO = 100, read-out: GFP values (%)) was 35% and the activity at 5 µg/mL [2] was 111%. The EC50 (coronin 1 promoter [3]) was 1200 nM and the “coronin 1 depletion in human PBMCs (Western blotting)” value (coronin 1) was “coronin 1 depletion”.
